Test results reported in US8637670B2, “Imidazo [4,5-C]quinoline derivatives and their use in the treatment of tumors and/or inflammation” (Piramal Enterprises Limited, priority 2009, dated 2014).

Experiments:
H460 = test: Cytotoxicity, propidium iodide assay, H460; format: cell-based; conditions: Homo sapiens, NCI-H460; Lung, H460, 48 hours treatment; read-out: IC50, C1b (H460)
Protocol: (§1) The assay was designed as in the reference, Anticancer Drugs, 2002, 13, 1-8, the disclosure of which is incorporated by reference for the teaching of the assay.
(§2) Cells from cell lines as mentioned in the table given below were seeded at a density of 3000 cells/well in a white opaque 96-well plate. Following incubation at 37° C./5% CO2 for a period of 18-24 hours, the cells were treated with various concentrations (stock solution was prepared in DMSO and subsequent dilutions were made in media as per ATCC guidelines) of the compounds of Example 1-40 was for a period of 48 hours. At the end of treatment, the spent culture medium was discarded, the cells were washed with 1×PBS and 200 μl of 7 μg/ml propidium iodide was added to each well. The plates were frozen at −70° C. for at least 24 hours. For analysis, the plates were brought to RT, allowed to thaw and were read in PoleStar fluorimeter with the fluorescence setting. The percentage of viable cells in the non-treated set of wells was considered to be 100 and the percentage viability following treatment was calculated accordingly. IC50 values were calculated from graphs plotted using these percentages. Table 4 depicts the IC50 values of compounds of Example 1-40 in individual cell lines.
(§3) The abbreviations for the Cell Lines as used in Table 4 are: […]

PC3 = test: Cytotoxicity, propidium iodide assay, PC3; format: cell-based; conditions: Homo sapiens, PC-3; Prostate, PC3, 48 hours treatment; read-out: IC50, C2a (PC3)
Protocol: as §1, §2, §3

A2780 = test: Cytotoxicity, propidium iodide assay, A2780; format: cell-based; conditions: Homo sapiens; Ovarian, A2780, 48 hours treatment; read-out: IC50, C3a (A2780)
Protocol: as §1, §2, §3

OVCAR 3 = test: Cytotoxicity, propidium iodide assay, OVCAR 3; format: cell-based; conditions: Homo sapiens; Ovarian, OVCAR 3, 48 hours treatment; read-out: IC50, C3b (OVCAR 3)
Protocol: as §1, §2, §3

U 373 = test: Cytotoxicity, propidium iodide assay, U 373; format: cell-based; conditions: Homo sapiens, U373 MG; Glioblastoma, U 373, 48 hours treatment; read-out: IC50, C7a (U 373)
Protocol: as §1, §2, §3

IL-6 = test: Human monocyte assay, LPS-stimulated IL-6 (ELISA); format: cell-based; conditions: human monocytes, 1 μg/ml LPS, 5 hours
Protocol: The assay was designed as in the reference, Physiol. Res., 2003, 52, 593-598, the disclosure of which is incorporated by reference for the teaching of the assay.
Peripheral blood mononuclear cells (hPBMC) were harvested from human blood and suspended in RPMI 1640 culture medium containing 10% FCS, 100 U/mL penicillin and […] streptomycin (assay medium). Monocytes in the hPBMCs were counted using a Coulter Counter following which the cells were resuspended at 2×10^5 monocytes/mL. A cell suspension containing 2×10^4 monocytes was aliquoted per well of a 96-well plate. Subsequently, the hPBMCs were incubated for 4-5 hours at 37° C. under 5% CO2 (During the incubation, the monocytes adhered to the bottom of 96-well plastic culture plate). Following the incubation, the non-adherent lymphocytes were washed with assay medium and the adherent monocytes re-fed with assay medium. After a 48-hour incubation period (37° C., 5% CO2), monocytes were pretreated with various concentrations of compounds of Example 1-40 (prepared in DMSO) or vehicle (0.5% DMSO) for 30 minutes and stimulated with 1 μg/ml LPS (Escherchia coli 0111:B4, Sigma Chemical Co., St. Louis, Mo.). The incubation was continued for 5 hours at 37° C., 5% CO2. Supernatants were harvested, assayed for IL-6 and TNF-α by ELISA as described by the manufacturer (BD Biosciences, USA). Dexamethasone (10 μM) was used as standard for this assay. The 50% inhibitory concentration (IC50) values were calculated by a nonlinear regression method. In all experiments, a parallel plate was run to ascertain the toxicity of compounds of Example 1-40. The toxicity was determined using the MTS assay as described in Am. J. Physiol. Cell Physiol., 2003, 285, C813-C822.

PI3Kα kinase = target: T1, PI3Kα kinase (Homo sapiens, UniProt P42336); test: PI3Kα assay (32P incorporation into phosphatidylinositol, TLC densitometry); format: biochemical; conditions: At 100 nM
T1 construct: purchased Millipore, USA
T1 sequence (P42336 whole entry): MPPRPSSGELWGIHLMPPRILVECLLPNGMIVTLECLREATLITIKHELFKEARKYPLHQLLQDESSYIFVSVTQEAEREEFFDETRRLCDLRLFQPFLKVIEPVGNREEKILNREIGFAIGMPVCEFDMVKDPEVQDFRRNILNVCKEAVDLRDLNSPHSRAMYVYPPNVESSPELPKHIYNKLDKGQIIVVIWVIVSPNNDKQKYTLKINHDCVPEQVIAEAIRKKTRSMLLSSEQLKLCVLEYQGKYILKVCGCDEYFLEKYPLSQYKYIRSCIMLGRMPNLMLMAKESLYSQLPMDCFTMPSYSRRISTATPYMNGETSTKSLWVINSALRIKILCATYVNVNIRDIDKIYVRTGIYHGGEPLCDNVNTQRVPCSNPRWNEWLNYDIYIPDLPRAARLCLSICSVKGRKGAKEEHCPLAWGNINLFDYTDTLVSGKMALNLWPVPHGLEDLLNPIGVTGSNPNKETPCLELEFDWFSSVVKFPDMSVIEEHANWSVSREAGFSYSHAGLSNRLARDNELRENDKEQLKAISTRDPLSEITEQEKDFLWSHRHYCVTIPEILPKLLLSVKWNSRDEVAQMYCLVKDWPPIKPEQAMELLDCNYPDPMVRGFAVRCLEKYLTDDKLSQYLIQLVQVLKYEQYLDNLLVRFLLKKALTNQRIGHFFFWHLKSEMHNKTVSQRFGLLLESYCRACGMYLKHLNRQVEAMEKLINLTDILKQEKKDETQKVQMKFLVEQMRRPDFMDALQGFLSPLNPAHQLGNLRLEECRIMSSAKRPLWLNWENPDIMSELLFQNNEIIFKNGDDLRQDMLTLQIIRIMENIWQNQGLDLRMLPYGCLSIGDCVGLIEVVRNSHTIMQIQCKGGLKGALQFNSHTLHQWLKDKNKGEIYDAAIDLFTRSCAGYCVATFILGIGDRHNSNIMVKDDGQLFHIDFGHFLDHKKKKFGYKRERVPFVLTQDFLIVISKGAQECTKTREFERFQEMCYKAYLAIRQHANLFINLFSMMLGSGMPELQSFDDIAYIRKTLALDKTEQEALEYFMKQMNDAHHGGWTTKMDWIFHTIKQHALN
T1 sequence (P27986 whole entry partner): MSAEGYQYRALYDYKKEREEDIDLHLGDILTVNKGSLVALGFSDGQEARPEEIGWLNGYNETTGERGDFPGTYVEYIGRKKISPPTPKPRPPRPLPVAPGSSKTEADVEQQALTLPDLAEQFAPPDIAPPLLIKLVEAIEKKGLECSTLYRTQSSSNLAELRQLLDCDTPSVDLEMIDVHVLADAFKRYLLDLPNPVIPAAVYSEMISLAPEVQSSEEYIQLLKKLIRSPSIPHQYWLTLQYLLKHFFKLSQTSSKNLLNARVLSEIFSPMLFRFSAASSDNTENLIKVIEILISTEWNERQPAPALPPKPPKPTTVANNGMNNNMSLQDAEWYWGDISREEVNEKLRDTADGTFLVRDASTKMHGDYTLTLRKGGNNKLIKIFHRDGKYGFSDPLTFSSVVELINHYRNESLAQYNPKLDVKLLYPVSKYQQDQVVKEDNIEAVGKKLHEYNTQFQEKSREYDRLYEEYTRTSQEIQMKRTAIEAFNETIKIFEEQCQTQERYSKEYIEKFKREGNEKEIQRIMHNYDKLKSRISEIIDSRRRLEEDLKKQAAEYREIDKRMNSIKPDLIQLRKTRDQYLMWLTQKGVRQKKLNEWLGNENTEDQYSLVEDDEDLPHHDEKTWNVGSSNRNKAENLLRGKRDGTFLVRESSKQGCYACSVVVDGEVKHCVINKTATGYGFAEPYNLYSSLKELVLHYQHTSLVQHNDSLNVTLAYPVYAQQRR
Protocol: The assay was designed as in the reference, Cell, 2006, 125, 733-47 (Supplemental Data), the disclosure of which is incorporated by reference for the teaching of the assay.
The kinase reaction was carried out in a 25 μL volume in a 1.5 mL microcentrifuge tube. The reaction mixture consisted of kinase buffer (10 mM Hepes, pH 7.5, 50 mM MgCl2), 20 ng PI3Kα kinase (Millipore, USA), 12.5 μg phosphatidylinositol (PI), 10 μM ATP and 1 μCi ^32γ P dATP. Compounds of Example 1-40 were added at concentrations (stock solution was prepared in DMSO and subsequent dilutions were made in kinase buffer) as mentioned in the table. The reaction mixture was incubated at 30° C. for 20 minutes and was terminated by adding 1:1 mixture of MeOH and chloroform. The tube contents were mixed on a vortex mixer and centrifuged at 10000 rpm for 2 minutes. 10 μL of the organic (lower) phase was spotted on to a TLC plate (silica, mobile phase: n-propanol and 2 M glacial acetic acid in 65:35 ratio). The plates were dried and exposed to an X-ray film. The bands appearing as a result of ^32γ P incorporation in PI were quantitated using the QuantityOne (BioRad, USA) densitometry program. PI-103 (Calbiochem, USA) was used as a standard.

A549 = test: Cytotoxicity, propidium iodide assay, A549; format: cell-based; conditions: Homo sapiens; Lung, A549, 48 hours treatment; read-out: IC50, C1a (A549)
Protocol: as §1, §2, §3

HCT116 = test: Cytotoxicity, propidium iodide assay, HCT116; format: cell-based; conditions: Homo sapiens, HCT-116; Colon, HCT116, 48 hours treatment; read-out: IC50, C4a (HCT116)
Protocol: as §1, §2, §3

PANC 1 = test: Cytotoxicity, propidium iodide assay, PANC 1; format: cell-based; conditions: Homo sapiens; Pancreatic, PANC 1, 48 hours treatment; read-out: IC50, C5a (PANC 1)
Protocol: as §1, §2, §3

SMILES	IC50 (A2780) [nM]	IC50 (IL-6) [nM]	IC50 (A549) [nM]	IC50 (HCT116) [nM]	further results
CC(C)(C#N)c1ccc(-n2c(=O)n(S(=O)(=O)c3ccc(OC(F)(F)F)cc3)c3cnc4ccc(Br)cc4c32)cc1 [Example 1, 2-(4-(8-Bromo-2-oxo-3-(4-(trifluoromethoxy)phenylsulfonyl)-2,3-dihydro-1H-imidazo[4,5-c]quinolin-1-yl)phenyl)-2-methylpropanenitrile]	≤ 1000	10000 to 30000			IC50 (H460): 1000 to 3000 nM; IC50 (PC3): 1000 to 3000 nM; IC50 (OVCAR 3): 1000 to 3000 nM; IC50 (U 373): > 3000 nM
CC(C)(C#N)c1ccc(-n2c(=O)n(S(=O)(=O)c3ccccc3)c3cnc4ccc(Br)cc4c32)cc1 [Example 7, 2-(4-(8-Bromo-2-oxo-3-(phenylsulfonyl)-2,3-dihydro-1H-imidazo[4,5-c]quinolin-1-yl)phenyl)-2-methylpropanenitrile]					inhibition at 0.1 µM (PI3Kα kinase): 10 to 50%
Cc1ccc(S(=O)(=O)n2c(=O)n(-c3ccc(C(C)(C)C#N)cc3)c3c4cc(Br)ccc4ncc32)cc1 [Example 8, 2-(4-(8-Bromo-2-oxo-3-tosyl-2,3-dihydro-1H-imidazo[4,5-c]quinolin-1-yl)phenyl)-2-methylpropanenitrile]					inhibition at 0.1 µM (PI3Kα kinase): 10 to 50%
CC(C)(C#N)c1ccc(-n2c(=O)n(S(=O)(=O)c3cccs3)c3cnc4ccc(Br)cc4c32)cc1 [Example 9, 2-(4-(8-Bromo-2-oxo-3-(thiophen-2-ylsulfonyl)-2,3-dihydro-1H-imidazo[4,5-c]quinolin-1-yl)phenyl)-2-methylpropanenitrile]	≤ 1000	10000 to 30000	1000 to 3000	> 3000	IC50 (PANC 1): > 3000 nM
CC(C)(C#N)c1ccc(-n2c(=O)n(S(=O)(=O)c3cccc(F)c3)c3cnc4ccc(Br)cc4c32)cc1 [Example 10, 2-(4-(8-Bromo-3-(3-fluorophenylsulfonyl)-2-oxo-2,3-dihydro-1H-imidazo[4,5-c]quinolin-1-yl)phenyl)-2-methylpropanenitrile]	1000 to 3000	> 30000	1000 to 3000	1000 to 3000	IC50 (PANC 1): > 3000 nM
CC(C)(C#N)c1ccc(-n2c(=O)n(S(=O)(=O)c3cccc4cccnc34)c3cnc4ccc(Br)cc4c32)cc1 [Example 11, 2-(4-(8-Bromo-2-oxo-3-(quinolin-8-ylsulfonyl)-2,3-dihydro-1H-imidazo[4,5-c]quinolin-1-yl)phenyl)-2-methylpropanenitrile]	> 3000	> 30000	> 3000	> 3000	IC50 (PANC 1): > 3000 nM
CC(=O)c1ccc(S(=O)(=O)n2c(=O)n(-c3ccc(C(C)(C)C#N)cc3)c3c4cc(Br)ccc4ncc32)cc1 [Example 12, 2-(4-(3-(4-Acetylphenylsulfonyl)-8-bromo-2-oxo-2,3-dihydro-1H-imidazo[4,5-c]quinolin-1-yl)phenyl)-2-methylpropanenitrile]	1000 to 3000	> 30000	1000 to 3000	> 3000	IC50 (H460): 1000 to 3000 nM; IC50 (PC3): > 3000 nM
COc1cccc(S(=O)(=O)n2c(=O)n(-c3ccc(C(C)(C)C#N)cc3)c3c4cc(Br)ccc4ncc32)c1 [Example 14, 2-(4-(8-Bromo-3-(3-methoxyphenylsulfonyl)-2-oxo-2,3-dihydro-1H-imidazo[4,5-c]quinolin-1-yl)phenyl)-2-methylpropanenitrile]		1000 to 10000			
CC(C)(C#N)c1ccc(-n2c(=O)n(S(=O)(=O)c3ccccc3C#N)c3cnc4ccc(Cl)cc4c32)cc1 [Example 20, 2-(8-Chloro-1-(4-(2-cyanopropan-2-yl)phenyl)-2-oxo-1H-imidazo[4,5-c]quinolin-3(2H)-ylsulfonyl)benzonitrile]					inhibition at 0.1 µM (PI3Kα kinase): 10 to 50%
Cc1cccc(S(=O)(=O)n2c(=O)n(-c3ccc(C(C)(C)C#N)cc3)c3c4cc(C)ccc4ncc32)c1 [Example 21, 2-Methyl-2-(4-(8-methyl-2-oxo-3-(m-tolylsulfonyl)-2,3-dihydro-1H-imidazo[4,5-c]quinolin-1-yl)phenyl)propanenitrile]		1000 to 10000	> 3000	> 3000	
Cc1ccc2ncc3c(c2c1)n(-c1ccc(C(C)(C)C#N)cc1)c(=O)n3S(=O)(=O)c1cccc(F)c1 [Example 22, 2-(4-(3-(3-Fluorophenylsulfonyl)-8-methyl-2-oxo-2,3-dihydro-1H-imidazo[4,5-c]quinolin-1-yl)phenyl)-2-methylpropanenitrile]		10000 to 30000	> 3000	> 3000	
Cc1ccc2ncc3c(c2c1)n(-c1ccc(C(C)(C)C#N)cc1)c(=O)n3S(=O)(=O)c1cc([N+](=O)[O-])ccc1C [Example 23, 2-Methyl-2-(4-(8-methyl-3-(2-methyl-5-nitrophenylsulfonyl)-2-oxo-2,3-dihydro-1H-imidazo[4,5-c]quinolin-1-yl)phenyl)propanenitrile]			> 3000	> 3000	
Cc1ccc2ncc3c(c2c1)n(-c1ccc(C(C)(C)C#N)cc1)c(=O)n3S(=O)(=O)c1cccc2cccnc12 [Example 24, 2-Methyl-2-(4-(8-methyl-2-oxo-3-(quinolin-8-ylsulfonyl)-2,3-dihydro-1H-imidazo[4,5-c]quinolin-1-yl)phenyl)propanenitrile]	> 3000			> 3000	IC50 (H460): > 3000 nM; IC50 (PC3): > 3000 nM
COc1ccc(NC(=O)n2c(=O)n(-c3ccc(C(C)(C)C#N)cc3)c3c4cc(Br)ccc4ncc32)cc1 [Example 31, 8-Bromo-1-(4-(2-cyanopropan-2-yl)phenyl)-N-(4-methoxyphenyl)-2-oxo-1H-imidazo[4,5-c]quinoline-3(2H)-carboxamide]	> 3000		1000 to 3000	> 3000	IC50 (PANC 1): > 3000 nM
CC(C)(C#N)c1ccc(-n2c(=O)n(C(=O)NCc3ccccc3)c3cnc4ccc(Br)cc4c32)cc1 [Example 32, N-benzyl-8-bromo-1-(4-(2-cyanopropan-2-yl)phenyl)-2-oxo-1H-imidazo[4,5-c]quinoline-3(2H)-carboxamide]		> 30000			inhibition at 0.1 µM (PI3Kα kinase): 10 to 50%
C/C=C/C(=O)n1c(=O)n(-c2ccc(C(C)(C)C#N)cc2)c2c3cc(C)ccc3ncc21 [Example 39, (E)-2-(4-(3-But-2-enoyl-8-methyl-2-oxo-2,3-dihydro-1H-imidazo[4,5-c]quinolin-1-yl)phenyl)-2-methylpropanenitrile]		≤ 1000	> 3000	> 3000	
